In patent publication US8541418B2, “Inhibitors of polo-like kinase” (Elan Pharmaceutical, Inc., priority 2009, dated 2013):

Legend:
Assay type in all cases: biochemical
PLK1 = PLK1 (Homo sapiens, UniProt P53350); assay: PLK TR-FRET peptide assay, PLK1; conditions: GST-PLK1, 60 min reaction
PLK2 = PLK2 (Homo sapiens, UniProt Q9NYY3); assay: PLK TR-FRET peptide assay, PLK2; conditions: PLK TR-FRET peptide assay, GST-PLK2, 60 min reaction; read-out: Plk2 IC50
PLK3 = PLK3 (Homo sapiens, UniProt Q9H4B4); assay: PLK TR-FRET peptide assay, PLK3; conditions: GST-PLK3, 15 min reaction, read-out: Plk3 IC50
Sequence of PLK3 (Q9H4B4 whole entry): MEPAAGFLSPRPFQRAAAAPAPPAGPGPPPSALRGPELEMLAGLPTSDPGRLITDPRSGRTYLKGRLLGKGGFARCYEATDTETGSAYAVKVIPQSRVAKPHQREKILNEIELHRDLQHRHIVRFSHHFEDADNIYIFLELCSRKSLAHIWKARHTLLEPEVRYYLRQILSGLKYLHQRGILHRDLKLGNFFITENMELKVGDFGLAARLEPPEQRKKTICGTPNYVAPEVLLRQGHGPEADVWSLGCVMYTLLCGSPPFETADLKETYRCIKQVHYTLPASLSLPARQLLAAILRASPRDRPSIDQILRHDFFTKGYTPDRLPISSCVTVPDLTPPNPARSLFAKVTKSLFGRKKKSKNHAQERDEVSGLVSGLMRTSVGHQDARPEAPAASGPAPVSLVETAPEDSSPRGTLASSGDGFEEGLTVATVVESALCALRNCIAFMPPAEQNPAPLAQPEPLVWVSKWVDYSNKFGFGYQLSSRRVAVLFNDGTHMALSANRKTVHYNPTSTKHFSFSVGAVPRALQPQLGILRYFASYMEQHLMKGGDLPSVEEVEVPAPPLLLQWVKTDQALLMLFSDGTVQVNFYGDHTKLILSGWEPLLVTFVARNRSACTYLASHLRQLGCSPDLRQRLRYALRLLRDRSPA

Sequence of PLK1 (P53350 whole entry): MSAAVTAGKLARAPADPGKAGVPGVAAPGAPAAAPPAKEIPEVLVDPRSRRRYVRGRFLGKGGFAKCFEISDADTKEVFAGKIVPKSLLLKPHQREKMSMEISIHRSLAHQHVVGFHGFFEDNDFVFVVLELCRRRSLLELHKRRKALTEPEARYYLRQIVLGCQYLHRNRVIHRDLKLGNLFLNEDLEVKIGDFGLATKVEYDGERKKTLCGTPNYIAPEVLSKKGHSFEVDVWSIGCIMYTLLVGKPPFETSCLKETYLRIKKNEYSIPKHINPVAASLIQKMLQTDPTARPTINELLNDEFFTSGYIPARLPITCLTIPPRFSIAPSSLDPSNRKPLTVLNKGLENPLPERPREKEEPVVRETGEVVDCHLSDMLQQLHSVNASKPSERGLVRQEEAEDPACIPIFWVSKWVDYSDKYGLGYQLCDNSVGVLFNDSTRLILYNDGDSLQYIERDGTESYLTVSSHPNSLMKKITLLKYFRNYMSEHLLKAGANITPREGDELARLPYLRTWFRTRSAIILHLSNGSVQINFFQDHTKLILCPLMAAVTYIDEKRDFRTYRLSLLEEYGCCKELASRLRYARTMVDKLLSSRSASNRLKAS
Sequence of PLK2 (Q9NYY3 whole entry): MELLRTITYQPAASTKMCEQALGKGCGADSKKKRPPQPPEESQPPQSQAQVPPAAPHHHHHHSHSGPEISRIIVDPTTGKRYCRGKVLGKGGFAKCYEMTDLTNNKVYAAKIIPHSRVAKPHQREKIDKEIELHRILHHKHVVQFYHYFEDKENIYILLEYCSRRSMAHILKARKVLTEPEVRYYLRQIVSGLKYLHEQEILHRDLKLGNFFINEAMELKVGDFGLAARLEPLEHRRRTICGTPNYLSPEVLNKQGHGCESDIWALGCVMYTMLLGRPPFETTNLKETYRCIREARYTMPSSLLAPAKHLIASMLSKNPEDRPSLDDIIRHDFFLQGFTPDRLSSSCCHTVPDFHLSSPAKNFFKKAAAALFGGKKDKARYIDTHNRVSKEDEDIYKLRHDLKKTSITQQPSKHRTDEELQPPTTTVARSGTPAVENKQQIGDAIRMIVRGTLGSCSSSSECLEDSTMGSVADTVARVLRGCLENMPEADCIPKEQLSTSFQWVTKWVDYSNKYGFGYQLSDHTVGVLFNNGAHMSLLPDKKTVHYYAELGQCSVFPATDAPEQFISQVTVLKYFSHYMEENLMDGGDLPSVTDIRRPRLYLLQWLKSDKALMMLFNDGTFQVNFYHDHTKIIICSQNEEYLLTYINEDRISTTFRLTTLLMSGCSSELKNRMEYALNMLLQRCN

Compound | IC50 (PLK1) [µM] | IC50 (PLK2) [µM] | IC50 (PLK3) [µM]
CCC12CCCCN1c1nc(-n3ccnc3-c3cc(F)cc(F)c3)ncc1N(C)C2=O (racemic) [Example 243, (+/−) 2-(2-(3,5-difluorophenyl)-1H-imidazol-1-yl)-6a-ethyl-5-methyl-7,8,9,10-tetrahydro-5H-pyrido[2,1-h]pteridin-6(6aH)-one] | 10 to 50 | < 1 | > 50
CCC12CCCCCN1c1nc(-n3ncnc3-c3cccc4ncccc34)ncc1N(C)C2=O (racemic) [Example 217, (+/−) 6a-ethyl-5-methyl-2-(5-(quinolin-5-yl)-1H-1,2,4-triazol-1-yl)-6a,7,8,9,10,11-hexahydroazepino[2,1-h]pteridin-6(5H)-one] | > 50 | 10 to 50 | > 50
CC[C@@H]1C(=O)N(C)c2cnc(-n3ccnc3-c3ccncc3)nc2N1CCC(F)(F)F [Example 234, (R)-7-ethyl-5-methyl-2-(2-(pyridin-4-yl)-1H-imidazol-1-yl)-8-(3,3,3-trifluoropropyl)-7,8-dihydropteridin-6(5H)-one] | 1 to 10 | < 1 | 10 to 50
CC[C@@H]1C(=O)N(C)c2cnc(-n3ccnc3-c3cncnc3)nc2N1C1CC1 [Example 143, (R)-8-cyclopropyl-7-ethyl-5-methyl-2-(2-(pyrimidin-5-yl)-1H-imidazol-1-yl)-7,8-dihydropteridin-6(5H)-one] | 10 to 50 | 1 to 10 | 10 to 50
[2H]C([2H])([2H])N1C(=O)C(C([2H])([2H])C([2H])([2H])[2H])N(C([2H])(C([2H])([2H])[2H])C([2H])([2H])[2H])c2nc(-n3ccnc3-c3ccc(C(F)(F)F)cc3)ncc21 (stereo not drawn) [Example 161, 7-perdeuteroethyl-8-perdeuteroisopropyl-5-trideuteromethyl-2-(2-(4-(trifluoromethyl)phenyl)-1H-imidazol-1-yl)-7,8-dihydropteridin-6(5H)-one] | 1 to 10 | < 1 | 1 to 10
CC[C@@]12CCCN1c1nc(-n3ccnc3-c3nccc4ccccc34)ncc1N(C)C2=O [Example 206, (S)-6a-ethyl-2-(2-(isoquinolin-1-yl)-1H-imidazol-1-yl)-5-methyl-6a,7,8,9-tetrahydropyrrolo[2,1-h]pteridin-6(5H)-one] | > 50 | 1 to 10 | 10 to 50
[2H]C([2H])([2H])N1C(=O)C(C([2H])([2H])C([2H])([2H])[2H])N(C([2H])(C([2H])([2H])[2H])C([2H])([2H])[2H])c2nc(-n3ccnc3-c3ccc(F)cc3)ncc21 (racemic) [Example 162, 7-perdeuteroethyl-2-(2-(4-fluorophenyl)-1H-imidazol-1-yl)-8-perdeuteroisopropyl-5-trideuteromethyl-7,8-dihydropteridin-6(5H)-one] | 1 to 10 | < 1 | 1 to 10
CC[C@@H]1C(=O)N(C)c2cnc(-c3ccncc3NC(C)=O)nc2N1C(C)C [Example 118, (R)—N-(4-(7-ethyl-8-isopropyl-5-methyl-6-oxo-5,6,7,8-tetrahydropteridin-2-yl)pyridin-3-yl)acetamide] | > 50 | 1 to 10 | > 50
CC[C@@H]1C(=O)N(C)c2cnc(-c3ccncc3CNC(=O)c3ccccc3)nc2N1C(C)C [Example 130, (R)—N-((4-(7-ethyl-8-isopropyl-5-methyl-6-oxo-5,6,7,8-tetrahydropteridin-2-yl)pyridin-3-yl)methyl)benzamide] | > 50 | > 50 | > 50
CC[C@@H]1C(=O)N(C)c2cnc(-n3ccnc3-c3nccc4ccccc34)nc2N1C(C)C [Example 196, (R)-7-ethyl-8-isopropyl-2-(2-(isoquinolin-1-yl)-1H-imidazol-1-yl)-5-methyl-7,8-dihydropteridin-6(5H)-one] | 10 to 50 | 1 to 10 | > 50
[2H]C([2H])([2H])N1C(=O)C(C([2H])([2H])C([2H])([2H])[2H])N(C([2H])(C([2H])([2H])[2H])C([2H])([2H])[2H])c2nc(-n3ccnc3-c3ccc(OC(F)(F)F)cc3)ncc21 (stereo not drawn) [Example 170, 7-perdeuteroethyl-8-perdeuteroisopropyl-5-trideuteromethyl-2-(2-(4-(trifluoromethoxy)phenyl)-1H-imidazol-1-yl)-7,8-dihydropteridin-6(5H)-one] | 10 to 50 | < 1 | > 50
CC[C@@]12CCCN1c1nc(-n3ncnc3-c3cccc4ncccc34)ncc1N(C)C2=O [Example 219, (S)-6a-ethyl-5-methyl-2-(5-(quinolin-5-yl)-1H-1,2,4-triazol-1-yl)-6a,7,8,9-tetrahydropyrrolo[2,1-h]pteridin-6(5H)-one] | 10 to 50 | 1 to 10 | > 50
CC[C@@H]1C(=O)N(C)c2cnc(-c3ccncc3CNS(C)(=O)=O)nc2N1C1CCCC1 [Example 124, (R)—N-((4-(8-cyclopentyl-7-ethyl-5-methyl-6-oxo-5,6,7,8-tetrahydropteridin-2-yl)pyridin-3-yl)methyl)methanesulfonamide] | 1 to 10 | 1 to 10 | 10 to 50
CC[C@@H]1C(=O)N(C)c2cnc(-c3nccnc3-c3ccc(C(F)(F)F)cc3)nc2N1C(C)C [Example 175, (R)-7-ethyl-8-isopropyl-5-methyl-2-(3-(4-(trifluoromethyl)phenyl)pyrazin-2-yl)-7,8-dihydropteridin-6(5H)-one] | 1 to 10 | 1 to 10 | 10 to 50
CCC12CCCCCN1c1nc(-n3ncnc3-c3ccccc3)ncc1N(C)C2=O (racemic) [Example 216, (+/−) 6a-ethyl-5-methyl-2-(5-phenyl-1H-1,2,4-triazol-1-yl)-6a,7,8,9,10,11-hexahydroazepino[2,1-h]pteridin-6(5H)-one] | 1 to 10 | 1 to 10 | 10 to 50
CC[C@@H]1C(=O)N(C)c2cnc(-n3ccnc3-c3nccs3)nc2N1C1CCCC1 [Example 74, (R)-8-cyclopentyl-7-ethyl-5-methyl-2-(2-(thiazol-2-yl)-1H-imidazol-1-yl)-7,8-dihydropteridin-6(5H)-one] | < 1 | < 1 | < 1

Continued, values first:

IC50 (PLK1) [µM] | IC50 (PLK2) [µM] | IC50 (PLK3) [µM] | Compound
< 1 | < 1 | 1 to 10 | CC[C@@H]1C(=O)N(C)c2cnc(-n3ccnc3-c3cccc(F)c3F)nc2N1C1CCOC1 (stereo partly drawn) [Example 253, (7R)-2-(2-(2,3-difluorophenyl)-1H-imidazol-1-yl)-7-ethyl-5-methyl-8-(tetrahydrofuran-3-yl)-7,8-dihydropteridin-6(5H)-one]
1 to 10 | < 1 | 10 to 50 | CCC12CCCCN1c1nc(-n3ccnc3-c3cccc(F)c3F)ncc1N(C)C2=O (racemic) [Example 248, (+/−) 2-(2-(2,3-difluorophenyl)-1H-imidazol-1-yl)-6a-ethyl-5-methyl-7,8,9,10-tetrahydro-5H-pyrido[2,1-h]pteridin-6(6aH)-one]
10 to 50 | 1 to 10 | 10 to 50 | CC[C@@H]1CC[C@@]2(CC)C(=O)N(C)c3cnc(-n4ccnc4C)nc3N12 [Example 325, (6aS,9R)-6a,9-diethyl-5-methyl-2-(2-methyl-1H-imidazol-1-yl)-6a,7,8,9-tetrahydropyrrolo[2,1-h]pteridin-6(5H)-one]
> 50 | 1 to 10 | > 50 | CC[C@@H]1C(=O)N(C)c2cnc(-n3ccnc3-c3ccc(F)c(F)c3)nc2N1C1COC1 [Example 341, (R)-2-(2-(3,4-difluorophenyl)-1H-imidazol-1-yl)-7-ethyl-5-methyl-8-(oxetan-3-yl)-7,8-dihydropteridin-6(5H)-one]
1 to 10 | < 1 | 1 to 10 | CC[C@@H]1CC[C@@]2(CC)C(=O)N(C)c3cnc(-c4cn[nH]c4-c4cscn4)nc3N12 [Example 356, (6aS,9R)-6a,9-diethyl-5-methyl-2-(5-(thiazol-4-yl)-1H-pyrazol-4-yl)-6a,7,8,9-tetrahydropyrrolo[2,1-h]pteridin-6(5H)-one]
1 to 10 | < 1 | 1 to 10 | CC[C@@H]1C(=O)N(C)c2cnc(-n3ccnc3C(F)(F)F)nc2N1C1CCCC1 [Example 352, (R)-8-cyclopentyl-7-ethyl-5-methyl-2-(2-(trifluoromethyl)-1H-imidazol-1-yl)-7,8-dihydropteridin-6(5H)-one]
1 to 10 | < 1 | 1 to 10 | CC[C@@H]1C(=O)N(C)c2cnc(-c3scnc3-c3ccn[nH]3)nc2N1C(C)C [Example 348, (R)-2-(4-(1H-pyrazol-5-yl)thiazol-5-yl)-7-ethyl-8-isopropyl-5-methyl-7,8-dihydropteridin-6(5H)-one]
> 50 | < 1 | > 50 | CCC12CCCCN1c1nc(-n3ccnc3-c3cc(F)c(F)c(F)c3)ncc1N(C)C2=O (racemic) [Example 256, (+/−) 6a-ethyl-5-methyl-2-(2-(3,4,5-trifluorophenyl)-1H-imidazol-1-yl)-7,8,9,10-tetrahydro-5H-pyrido[2,1-h]pteridin-6(6aH)-one]
> 50 | 10 to 50 | > 50 | CN1C(=O)[C@H](CC(F)(F)F)N(CCC(F)(F)F)c2nc(-n3ccnc3-c3ccc(F)cc3F)ncc21 [Example 294, (S)-2-(2-(2,4-difluorophenyl)-1H-imidazol-1-yl)-5-methyl-7-(2,2,2-trifluoroethyl)-8-(3,3,3-trifluoropropyl)-7,8-dihydropteridin-6(5H)-one]
> 50 | 10 to 50 | > 50 | CC[C@@]12CCC(=O)N1c1nc(-n3ccnc3-c3ccccc3)ncc1N(C)C2=O [Example 258, (S)-6a-ethyl-5-methyl-2-(2-phenyl-1H-imidazol-1-yl)-7,8-dihydropyrrolo[2,1-h]pteridine-6,9(5H,6aH)-dione]
